From US9867798B2, “Ladostigil therapy for immunomodulation” (priority 2012, dated 2018) come the findings set out here.

Assay [1] relates to ChE. Description: Cholinesterase inhibition in plasma and spleen of LPS injected mice (Example 5). Format: in vivo, Balb-C mice. The conditions noted are these: 120 min after oral administration; for Inhibition of ChE, plasma / Inhibition of ChE, spleen: LPS injected mice. As for the experimental part:
In experiments on the effect of chronic treatment with ladostigil on ChE activity in mice drinking DSS, the spleen was rapidly removed as described above, together with a colon segment of about 0.5 cm in length taken from the proximal area. Spleen and colon segments were washed in cold phosphate buffered saline (PBS) before they were frozen at −80° C. For assay, the tissue was unfrozen and weighed and PBS was added to each tissue at a ratio of 1 mg tissue to 1 ml. Tissues were homogenized at a speed of 24,000 rpm in cold phosphate buffer pH 7 containing 0.1% Triton and centrifuged at 14000 rpm. Aliquots of plasma and the supernatant from the spleen and colon were incubated with acetylthiocholine and dinitro benzoic acid in phosphate buffer pH 7 and the rate of development of the yellow color was measured as described by Ellman et al, (1961). Percent inhibition of ChE activity was calculated by comparison with that of control mice given water by gavage. Protein concentration was determined by means of by Pierce BCA Protein Assay Kit (Thermo Scientific, USA) according to the manufacturer's instructions. It is noted, that ChE activity in the colon and spleen of mice is attributed mainly to that of AChE while that in mouse plasma is mainly attributable to BuChE.
For the LPS experiment involving a single administration, ladostigil (10 or 20 mg/kg) in a volume of 1 ml/100 g or water (1 ml/100 g) were given by gavage to groups of 6-8 Balb-C male mice weighing 24-30 g and LPS as described above. […] Blood was taken into heparinized tubes and centrifuged at 14000 rpm at room temperature for 4 min to provide plasma and the spleen was rapidly removed, weighed, frozen in liquid nitrogen and stored at −80° C. until assayed. It is noted, that ChE inhibition in mouse plasma is mainly attributed to BuChE activity, and in mouse spleen—mainly to AChE activity.
Percent inhibition of ChE activity was calculated by comparison with that of control mice given water by gavage as described in Example 1 above.

In the next assay the target is T1, MAO-A (Rattus norvegicus, UniProt P21396).
T1 construct: from tissue; host or cells: heart of aged Wistar rats after chronic oral dosing
T1 sequence (P21396 1-526): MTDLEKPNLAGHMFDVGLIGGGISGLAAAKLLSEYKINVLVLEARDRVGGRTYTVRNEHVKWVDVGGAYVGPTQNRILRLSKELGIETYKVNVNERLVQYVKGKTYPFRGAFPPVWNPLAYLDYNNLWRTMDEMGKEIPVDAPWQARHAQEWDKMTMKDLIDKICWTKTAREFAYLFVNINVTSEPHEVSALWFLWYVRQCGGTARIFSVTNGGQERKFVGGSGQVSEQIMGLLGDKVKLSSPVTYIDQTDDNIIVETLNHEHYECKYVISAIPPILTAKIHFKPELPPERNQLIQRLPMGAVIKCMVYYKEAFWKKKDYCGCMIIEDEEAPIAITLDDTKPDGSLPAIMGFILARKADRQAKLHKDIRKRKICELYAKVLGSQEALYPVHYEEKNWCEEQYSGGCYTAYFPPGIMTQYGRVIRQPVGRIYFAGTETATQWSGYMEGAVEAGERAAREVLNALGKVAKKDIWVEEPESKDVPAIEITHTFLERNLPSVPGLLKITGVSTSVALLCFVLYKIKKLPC
Description: MAO-A activity in heart of treated rats. The format is in vivo. The conditions noted are these: read-out: MAO-A activity in the heart inhibited.

For assay [2], the system named is ChE. Nature of the assay: ChE inhibition in heart or brain of treated rats. Format: in vivo.
For assay [3], the system named is rat heart ischemia/reperfusion. Description: Myocardial ischemic preconditioning, isolated Langendorff hearts of chronically treated rats. The format is in vivo, Wistar rats. The arrangement: DP: unit not given beside the values. The conditions noted are these: for DP / HR / WI: old rats; for WI: percent of value at end of stabilization. As for the experimental part: Four groups of male rats of the Wistar strain were used for these studies; a) 3-months old untreated; b) 22 months old, untreated; c) 22 months old treated from the age of 16 months by daily oral administration of ladostigil hemitartrate at a dose of 1 mg/kg/day (hereinafter “low dose”; d) 22 months old treated from the age of 16 months by daily oral administration of ladostigil hemitartrate at a dose of 8.5 mg/kg/day (hereinafter “high dose”).
On the day of the experiment, rats were injected with i.p. sodium heparin (500 units/kg) followed 30 min later by 80 mg/kg ketamine plus 5 mg/kg xylazine i.p. Bilateral thoracotomy was performed and hearts with a segment of the ascending aorta were rapidly excised, put in ice-cold heparinized saline and mounted onto the Langendorff apparatus. They were perfused with a modified Krebs-Henseleit (KH) buffer as described in Chevion et al. (1993). Heart rate (HR), developed pressure (DP), and its derivatives (+dp/dt and −dp/dt) were recorded. All primary data were processed using a customized version of LabView 7.1 software (National Instruments, Austin, Tex., USA). Work index (WI=Heart Rate×DP) was used as an indicator of heart contractility. The degree of cardio-protection was expressed by the percent (ratio) of two values: WI at the completion of the experiment (at the 120th min) and WI at the completion of the stabilization phase (at the 10th min).
Experimental protocol: Three basic experimental protocols were employed: (i) continuous (un-interrupted) perfusion: (ii) stabilization (25 min) followed by ischemia and reperfusion (35/60 min) (I/R), and (iii) stabilization (10 min) followed by IPC, ischemia and reperfusion (IPC+I/R). The hemodynamic parameters of the heart were monitored and recorded continuously throughout, during all experimental protocols. Under the I/R protocol, the stabilization phase was extended from 10 to 25 min to compensate for the 15 min of the IPC procedure, which consisted of 3 cycles of (2 min ischemia and 3 min perfusion).

The mark [4] stands for this setting: IPC + I/R, high dose 8.5 mg/kg/day.
[5] abbreviates: IPC + I/R, low dose 1 mg/kg/day.

The structures appear in SMILES notation.

For the compound `C#CCN[C@@H]1CCc2ccc(OC(=O)N(C)CC)cc21` [Ladostigil, R(+)-6-(N-methyl, N-ethyl-carbamoyloxy)-N′-propargyl-1-aminoindan], the “Inhibition of ChE activity in plasma or spleen” value in the assay on ChE [1] (ladostigil 10 mg/kg) is recorded as “did not significantly inhibit ChE activity”. Further, the figures for the “Inhibition of ChE, plasma” value in the assay on ChE [1] (ladostigil 10 mg/kg) and in the assay on ChE [1] (ladostigil 20 mg/kg) were 7.8 ± 2.4% and 27.4±5.9%, respectively. In addition, the “Inhibition of ChE, spleen” value with ChE [1] (ladostigil 10 mg/kg) worked out at 15.1 ± 3.6%; in the assay with ChE [1] (ladostigil 20 mg/kg), 28.1 ± 1.9 %. On MAO-A, the inhibition at 8.5 mg/kg/day is 50 to 60%. Further, the “ChE inhibition in the heart or brain” value in the assay with ChE [2] (1 mg/kg/day) was “No significant ChE inhibition”. Further, the ChE activity inhibited with ChE [2] (8.5 mg/kg/day) was found to be 30%. Also, the “Effect on WI after ischemia and 60 min reperfusion” value in assay [3] (aging rats, I/R without IPC, either dose) is listed as “no significant effect”. The DP in assay [3] (I/R, high dose 8.5 mg/kg/day) stood at 14 ± 6; in assay [3] (I/R, low dose 1 mg/kg/day), 20 ± 10; in assay [3] (setting [4]), 30 ± 12; in assay [3] (setting [5]), 68 ± 15. Further, the HR came to 83 ± 8 in assay [3] (I/R, high dose 8.5 mg/kg/day); 67 ± 15 in assay [3] (I/R, low dose 1 mg/kg/day); 92 ± 28 in assay [3] (setting [4]); 77 ± 8 in assay [3] (setting [5]). The WI was 12 ± 5% in assay [3] (I/R, high dose 8.5 mg/kg/day); 13 ± 6% in assay [3] (I/R, low dose 1 mg/kg/day); 26 ± 6% in assay [3] (IPC + I/R, high dose 8.5 mg/kg/day, 8.5 mg/kg/day); “much smaller” in assay [3] (IPC + I/R, high dose 8.5 mg/kg/day, listed as ladostigil, 8.5 mg/kg/day); 53 ± 12% in assay [3] (IPC + I/R, low dose 1 mg/kg/day, 1 mg/kg/day); above 50% in assay [3] (IPC + I/R, low dose 1 mg/kg/day, listed as ladostigil, 1 mg/kg/day).
